From publication PMC6523505, “Inhibition of Oncogenic Kinases: An In Vitro Validated Computational Approach Identified Potential Multi-Target Anticancer Compounds” (Biomolecules, 2019)

Experiments:
[1] = system: Vero (monkey epithelial kidney) cell line; assay: MTT cytotoxicity assay; assay type: cell-based; settings: after 48 h of treatment, mean ± S.D
Excerpt: (§1) HeLa (human epithelial cervical cancer, ATCC CCL-2), HepG2 (human epithelial liver cancer, ATCC HB-8065) and Vero (monkey epithelial kidney […], ATCC CCL-81) cell lines were used to examine the selected virtual hit compounds’ anti-cancer activity. All cell lines were generously provided by the late Prof. Dr. M.H. Qazi, University of Lahore, Lahore, Pakistan. The test compounds were purchased via MolPort and cisplatin from Pharmedic (Pvt) Ltd., Lahore, Pakistan. Cell culture media, fetal calf serum (FCS), MTT (3-[[…]]-2,5-diphenyltetrazolium bromide), DMSO, antibiotic/antimycotic and Supplementary Materials were purchased from Thermo Fisher Scientific, Inc, (Waltham, MA, USA).
(§2) Cells were harvested at 80% confluence by treating the medium-free monolayer with trypsin-EDTA. Cell counts were performed with a hemocytometer, and cell viability was determined with trypan blue. The cell suspension was adjusted to a final concentration of […] in DMEM (Dulbecco’s modified Eagle medium) with 10% FCS. Cells were dispensed to tissue culture grade 96-well plates, with each microwell receiving 100 µL, i.e., 7000 cells per microwell. The plate was incubated at 37 °C for 12 h in 5% CO2 incubator. Stock solutions (10 mM) of the test compounds and positive control were prepared in DMSO. Test concentrations were prepared by diluting the stocks with the growth media. Test compound solutions were diluted from 100 µL to a final well volume of 200 µL. MTT reagent was prepared in phosphate-buffered saline (PBS) in a concentration of 5 mg/mL. After 48 h, 25 µL of MTT reagent was added to each microwell, followed by incubation for 5 h. MTT is reduced by metabolically active cells to insoluble purple formazan crystals by mitochondrial enzymes. The reduction of MTT is primarily due to glycolytic activity within the cell, and is dependent upon the presence of NADH and NADPH. The entire contents of each microwell were carefully pipetted out without disturbing the cells on the well floor. In order to solubilize the formazan crystals, 100 µL of DMSO was dispensed to each well. The absorbance was measured with the help of a Bio Rad PR 4100 microplate reader at a wavelength of 570 nm. Serial dilutions of cisplatin were used as a positive control, while the negative controls contained only the reagent, but not any drug. Percentage viability was calculated and dose–response curves were plotted using the percentage viability against the drug/test compound concentration (µM). Results represent mean ±SD of six readings: three determinations of two independent experiments.
(§3) These four compounds were subsequently tested for their cytotoxic effect on different cell lines. Cell viability assays on cancer cell lines HeLa and HepG2 and non-cancerous Vero cell line were performed using the lead compounds (Z21, Z88, F34, AF3) with doses ranging from 50 to 400 µM. Cisplatin was used as a positive control at dose levels of 1 µM, 10 µM, and 20 µM. Dose–response curves of all four inhibitors against the three cell lines show the moderate sensitivity of all cell line toward these inhibitors (Figure 6).

[2] = system: HeLa (human epithelial cervical cancer) cell line; assay: MTT cytotoxicity assay; assay type: cell-based; settings: after 48 h of treatment, mean ± S.D
Excerpt: as §1, §2, §3

[3] = system: HepG2 (human epithelial liver cancer) cell line; assay: MTT cytotoxicity assay; assay type: cell-based; settings: after 48 h of treatment, mean ± S.D
Excerpt: as §1, §2, §3

[4] = system: TIE2, PDGFR, RET, KIT, B-RAF; settings: FDA-approved kinase inhibitor, against tested cell lines, no reference given; cited from earlier work
[5] = system: VEGF, RET, MET, NTRKB, TIE2, AXL; settings: FDA-approved kinase inhibitor, against tested cell lines, no reference given; cited from earlier work
[6] = system: BCR-ABL, KIT, LCK, EPHA3, 8, DDR1, 2; settings: FDA-approved kinase inhibitor, against tested cell lines, no reference given; cited from earlier work
PDGFR, VEGFR = settings: FDA-approved kinase inhibitor, against tested cell lines, no reference given; cited from earlier work
[7] = system: BCR-ABL, SRC, KIT, PDGFR, EPH, CSK; settings: FDA-approved kinase inhibitor, against tested cell lines, no reference given; cited from earlier work
[8] = system: EGFR, VEGFR, RET, Tie-2, FGFR1; settings: FDA-approved kinase inhibitor, against tested cell lines, no reference given; cited from earlier work
cannabinoid CB1 receptor = target: cannabinoid CB1 receptor; set-up: method as in PMID 17027269; settings: cited from earlier work

`Cc1ccc(NC(=O)Cn2cnc3sc(-c4nc(-c5ccccc5)no4)c(C)c3c2=O)cc1Cl` [Compound F34] gave an IC50 [1] of 131 ± 2.3 µM, an IC50 [2] of 145 ± 2.06 µM and an IC50 [3] of 175.5 ± 1.66 µM.

In the case of `COc1cc2nccc(Oc3ccc(NC(=O)C4(C(=O)Nc5ccc(F)cc5)CC4)cc3)c2cc1OC` [cabozantinib], the IC50 [5] is given as < 0.015 µM.

Compound `COc1ccc(C(=O)Oc2ccc3c(=O)c(Oc4ccc5ccccc5c4)coc3c2)cc1` [AF3] has an IC50 [1] of 209 ± 2.43 µM, an IC50 [2] of 176 ± 2.12 µM and an IC50 [3] of 188 ± 2.31 µM.

`N.N.[Cl][Pt][Cl]` [Cisplatin, cisplatin, reference compound] gave an IC50 [1] of 7.99 ± 2.38 µM, an IC50 [2] of 6.02 ± 1.59 µM and an IC50 [3] of 6.41 ± 1.54 µM.

With `O=S(=O)(c1cccc(NCc2cccc3ccccc23)c1)N1CCOCC1` [Compound Z21] the IC50 [1] was 250.2 ± 2.34 µM, the IC50 [2] was 231 ± 2.35 µM and the IC50 [3] was 246 ± 1.93 µM.

In the case of `Cc1nc(Nc2ncc(C(=O)Nc3c(C)cccc3Cl)s2)cc(N2CCN(CCO)CC2)n1` [dasatinib], the IC50 [7] is given as < 0.01 µM.

Work on `O=C(CCn1[nH]c(=O)c2ccccc2c1=O)N1CCCC1c1ccc2c(c1)OCCO2` (stereo not shown) [Compound Z88] yielded an IC50 [1] of 204.8 ± 1.78 µM, an IC50 [2] of 218.7 ± 2.04 µM and an IC50 [3] of 222.1 ± 1.68 µM.

For `O=C(Nc1ccc(Cl)c(S(=O)(=O)N2CCOCC2)c1)c1cccc2ccccc12` [N-(4-chloro-3-(morpholinosulfonyl)phenyl)-1-naphthamide], the IC50 (cannabinoid CB1 receptor) is listed as “nanomolar range”.
